According to the supplement of paper PMC11208160:

Experiment: recombinant UMI read abundance after kanamycin selection (control-corrected) (log10(CPM+1)); higher = more efficient recombination; extreme values may be limits of the assay; sequences stand for … in AGTGCAGAGAAAATCGGCCAGTTTTCTCTGCCTGCAGTCCGCATGCCGTGGGACCCCTTGGGTTCTAACCTGTTGCCTAGATTTATGCAGCGGACTGCCTTTCTCCCAAAGTGATAAACCGG…AGGTTGGTTTCACT; site = the 11-nt donor
Outline: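 After plating on IPTG (0.07 mM) plus kanamycin, or unselected, in two replicates, recombinant UMIs were PCR-amplified across the donor–target junction and sequenced. The cells were Escherichia coli co-electroporated with a UMI-tagged donor and donor-binding-loop pair library and a target plasmid with a fixed target and T7-inducible IS621 bridge recombinase. Values are log10(CPM+1), with CPM averaged over replicates and scaled by control-derived factors.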
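Note: IS621 bridge recombinase in Escherichia coli cells against a fixed T5 target plasmid.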

Sequence | recombinant UMI read abundance (log10)
GAACGGCCATGGACCGGTTTTCCCGGTAATCCGTATTTGCA (site GAATGGCCTTG) | 0
GAACTCACATGGACCGGTTTTCCCGGTAATCCGTATTTGCT (site GAACTCACTAG) | 2.53
GAACTGGCATGGACCGGTTTTCCCGGTAATCCGTATTTGCG (site GAACTGGCTCG) | 0.715
GAACTTACATGGACCGGTTTTCCCGGTAATCCGTATTTGCG (site GAACTTACTCG) | 1.85
GAAGACTCATGGACCGGTTTTCCCGGTAATCCGTATTTGTT (site GAAGAATCTAA) | 0.423
GAAGACTCATGGACCGGTTTTCCCGGTAATCCGTATTTGTT (site GAAGACTCTAA) | 2.84
GAAGACTCATGGACCGGTTTTCCCGGTAATCCGTATTTGTT (site GAAGAGTCTAA) | 0.00964
GAAGACTCATGGACCGGTTTTCCCGGTAATCCGTATTTGTT (site GAAGATTCTAA) | 0.506
GAAGGAGCATGGACCGGTTTTCCCGGTAATCCGTATTTGTA (site GAAGGAGCTTA) | 2.33
GAAGGGCCATGGACCGGTTTTCCCGGTAATCCGTATTTGCA (site GAAAGGCCTTG) | 0
GAAGGGCCATGGACCGGTTTTCCCGGTAATCCGTATTTGCA (site GAACGGCCTTG) | 0
GAAGGGCCATGGACCGGTTTTCCCGGTAATCCGTATTTGCA (site GAAGGGCCTTG) | 0
GAAGGGCCATGGACCGGTTTTCCCGGTAATCCGTATTTGCA (site GAATGGCCTTG) | 0
GAAGGTTCATGGACCGGTTTTCCCGGTAATCCGTATTTGTT (site GAAGATTCTAA) | 1.32
GAAGGTTCATGGACCGGTTTTCCCGGTAATCCGTATTTGTT (site GAAGCTTCTAA) | 0.00355
GAAGGTTCATGGACCGGTTTTCCCGGTAATCCGTATTTGTT (site GAAGGTTCTAA) | 2.35
GAAGGTTCATGGACCGGTTTTCCCGGTAATCCGTATTTGTT (site GAAGTTTCTAA) | 0
GAAGTCACATGGACCGGTTTTCCCGGTAATCCGTATTTGGG (site AAAGTCACTCC) | 0.11
GAAGTCACATGGACCGGTTTTCCCGGTAATCCGTATTTGGG (site CAAGTCACTCC) | 0.0174

Sequence | recombinant UMI read abundance (log10)
GAAGTCACATGGACCGGTTTTCCCGGTAATCCGTATTTGGG (site GAAGTCACTCC) | 0.412
GAAGTCACATGGACCGGTTTTCCCGGTAATCCGTATTTGGG (site TAAGTCACTCC) | 0.221
GAAGTGACATGGACCGGTTTTCCCGGTAATCCGTATTTGCG (site GAAGTGACTCG) | 2.14
GAATAAGCATGGACCGGTTTTCCCGGTAATCCGTATTTGTG (site GAATAAGCTCA) | 1.99
GAATATCCATGGACCGGTTTTCCCGGTAATCCGTATTTGCT (site GAATATCCTAG) | 1.3
GAATATCCATGGACCGGTTTTCCCGGTAATCCGTATTTGCT (site GACTATCCTAG) | 0
GAATATCCATGGACCGGTTTTCCCGGTAATCCGTATTTGCT (site GAGTATCCTAG) | 0
GAATATCCATGGACCGGTTTTCCCGGTAATCCGTATTTGCT (site GATTATCCTAG) | 0
GAATCATCATGGACCGGTTTTCCCGGTAATCCGTATTTGCT (site CGATCATCTAG) | 1.88
GAATCATCATGGACCGGTTTTCCCGGTAATCCGTATTTGCT (site GAATCATCTAG) | 1.95
GAATCGTCATGGACCGGTTTTCCCGGTAATCCGTATTTGCA (site GAATCGTCTTG) | 2.71
GAATCTCCATGGACCGGTTTTCCCGGTAATCCGTATTTGAA (site GAATCTCCTTT) | 0.611
GAATGCACATGGACCGGTTTTCCCGGTAATCCGTATTTGTA (site GAATGCACTTA) | 1.87
GAATGCACATGGACCGGTTTTCCCGGTAATCCGTATTTGTA (site GCATGCACTTA) | 0.691
GAATGCACATGGACCGGTTTTCCCGGTAATCCGTATTTGTA (site GGATGCACTTA) | 0.585
GAATGCACATGGACCGGTTTTCCCGGTAATCCGTATTTGTA (site GTATGCACTTA) | 0.36
GAATGGACATGGACCGGTTTTCCCGGTAATCCGTATTTGAC (site GAATGGACTGT) | 2.81
GAATGGACATGGACCGGTTTTCCCGGTAATCCGTATTTGAC (site GACTGGACTGT) | 0
GAATGGACATGGACCGGTTTTCCCGGTAATCCGTATTTGAC (site GAGTGGACTGT) | 0

Sequence | recombinant UMI read abundance (log10)
GAATGGACATGGACCGGTTTTCCCGGTAATCCGTATTTGAC (site GATTGGACTGT) | 0.743
GAATGGACATGGACCGGTTTTCCCGGTAATCCGTATTTGCA (site GAATGGACTTG) | 2.46
GAATGGACATGGACCGGTTTTCCCGGTAATCCGTATTTGCA (site GAATGGCCTTG) | 0.483
GAATGGACATGGACCGGTTTTCCCGGTAATCCGTATTTGCA (site GAATGGGCTTG) | 2.41
GAATGGACATGGACCGGTTTTCCCGGTAATCCGTATTTGCA (site GAATGGTCTTG) | 1.59
GAATGGCCATGGACCGGTTTTCCCGGTAATCCGTATTTGAA (site GAATGGCCTTA) | 0.00888
GAATGGCCATGGACCGGTTTTCCCGGTAATCCGTATTTGAA (site GAATGGCCTTC) | 0
GAATGGCCATGGACCGGTTTTCCCGGTAATCCGTATTTGAA (site GAATGGCCTTG) | 0.0104
GAATGGCCATGGACCGGTTTTCCCGGTAATCCGTATTTGAA (site GAATGGCCTTT) | 0.0109
GAATGGTCATGGACCGGTTTTCCCGGTAATCCGTATTTGCA (site GAATGGACTTG) | 0.0076
GAATGGTCATGGACCGGTTTTCCCGGTAATCCGTATTTGCA (site GAATGGCCTTG) | 0
GAATGGTCATGGACCGGTTTTCCCGGTAATCCGTATTTGCA (site GAATGGGCTTG) | 0.00395
GAATGGTCATGGACCGGTTTTCCCGGTAATCCGTATTTGCA (site GAATGGTCTTG) | 2.38
GAATTCCCATGGACCGGTTTTCCCGGTAATCCGTATTTGTA (site GAATTCCCTTA) | 0.666
GAATTGACATGGACCGGTTTTCCCGGTAATCCGTATTTGAT (site GAATTGACTAT) | 1.37
GAATTGCCATGGACCGGTTTTCCCGGTAATCCGTATTTGCA (site GAATAGCCTTG) | 0
GAATTGCCATGGACCGGTTTTCCCGGTAATCCGTATTTGCA (site GAATCGCCTTG) | 0
GAATTGCCATGGACCGGTTTTCCCGGTAATCCGTATTTGCA (site GAATGGCCTTG) | 0.696
GAATTGCCATGGACCGGTTTTCCCGGTAATCCGTATTTGCA (site GAATTGCCTTG) | 0
